Structures are written as SMILES.

The subject of data set [1] is opto-α-syn SH-SY5Y cells. As to the kind of experiment: OASIS-based high-content imaging assay of light-induced α-syn aggregation (5G4 staining, Aggregates Induction Score). The format is cell-based, human. The procedure:
The opto-α-syn expressing SH-SY5Y cells were seeded in 96-well black flat bottom imaging microplates (Falcon) at 30,000 cells per well in 100 μL of complete media using E1-ClipTip electronic multichannel pipette (Thermo Fisher Scientific) and incubated in 37° C. and 5% CO2 humidified incubator. After 18 h of incubation, 10 μL of 10 μM compounds (column 2 to 10) or 1% DMSO (column 1 and 12) were added (final concentration of DMSO is 0.1%). In order to induce aggregations, the plates were illuminated with blue light (26 μW/mm^2) on customized blue light illumination 96-well plates for 2 h. Afterward, cells were fixed in 4% paraformaldehyde (PFA) for 15 min and stained with the aggregated-α-syn antibody (5G4) after permeabilization with 0.1% Triton X-100/0.5% BSA/PBS solution. […] To analyze images, the automated aggregation quantification algorithm and cell counting algorithm in the form of macro are developed using ImageJ software. Briefly, the algorithm includes the inversion, subtracting background, threshold selection, analyzing particles with ranged size and circularity. The Aggregates Induction Score (AIS) is calculated using, the following equation: […]
where N^agg is the number of aggregates, ^Ntotal is the number of total cells. The AIS in each well is normalized by the AIS in positive control which is set as 1.0. […] The hit selection strategy was based on calculated AIS; hits were defined as AIS<0.5. […] Two independent experiments were performed, and total 10 images per well are analyzed to calculate AIS.
As illustrated in FIGS. 8A-8E, high-content imaging screening with the optogenetic α-syn aggregation system was performed, following the schematic representation of the process of high-content imaging (HCI) screening with optogenetics-assisted method of alpha-synuclein aggregation induction system (OASIS) (FIG. 8A). SH-SY5Y cells expressing opto-α-syn were in dark or exposed to blue light (26 μW/mm^2 at 470 nm, 1 Hz, 1 s) for 1.5 h under 96-well plate culture conditions, and then immunostained with 5G4 antibody. The equation of Aggregates Induction Score (AIS) (FIG. 8B) was used for the calculation of Z′-factor for HCI screening with OASIS (FIG. 8C). […] Arrow represents the degree of separation (Z′-factor) between light-illuminated and darkness controls. […] Detailed information of numbered compounds was described in Table 1. One-way ANOVA followed by Dunnett's post hoc test (n=10 or 20, 5 or 10 images each from two independent experiments). *P<0.05, **P<0.01, ***P<0.001, ****P<0.0001.
As illustrated in FIGS. 9A-9B, high-content imaging screening with the optogenetic α-syn aggregation system was performed. The measurement of 5G4^+ aggregates in opto-mock or opto-α-syn SH-SY5Y neuronal cells was assessed. Cells were in dark or exposed to blue light (26 μW/mm^2 at 470 nm, 1 Hz, 1 s) for 1.5 h, and then immunostained with 5G4 antibody. […] Images were converted to grayscale, and a threshold was adjusted to exclude the background based on the size of particles. Once the value of threshold was determined, all the images were applied with the fixed threshold, and then the number of aggregates was measured (FIG. 9A). Number of DAPI from the original images were counted (FIG. 9B). Representative images of opto-α-syn SH-SY5Y neuronal cells treated with 19 compounds under 24-well plate culture conditions were imaged. SH-SY5Y cells expressing opto-α-syn were in dark or exposed to blue light (34 μW/mm^2 at 470 nm, 1 Hz, 0.5 s) for 1.5 h, and then immunostained with 5G4 antibody.

Data set [2] concerns mouse primary neurons treated with α-syn PFF. As to the kind of experiment: α-syn PFF model in mouse primary neurons (TX-insoluble pathologic α-syn). In kind it is cell-based. The method, then: To validate the effects of these two compounds on the OASIS-independent model, α-syn PFF were treated with mouse primary neurons and non-OASIS-human PD hiPSC-derived mDA neurons with CDC 021 and BAG 956.

In data set [3] the test system is blue light-illuminated opto-α-syn-mDA neurons. Briefly: Autophagy and aggregate clearance in blue light-illuminated opto-α-syn-mDA neurons. In kind it is cell-based, human. The method, then: (§1) Because autophagy can be activated by the inhibition of PI 3-kinase (PI3K) or the PDK1 pathway, it was tested whether treatment with BAG 956 can induce the autophagic flux to decrease α-syn aggregates in opto-α-syn mDA neurons and MOs.

Data set [4] deals with opto-α-syn-MOs. Briefly: Autophagy in opto-α-syn-MOs kept in dark after blue light illumination. In kind it is cell-based, human. To be noted: treatment only during dark condition after blue light illumination for six days. The procedure: as §1
Data set [5] relates to PI3K-PDK1/AKT/mTOR signaling pathway. Briefly: PI3K/PDK1 downstream target phosphorylation in α-syn PFF-treated PD hiPSC-derived dopaminergic neurons. The format is cell-based, human. From the text: (§2) Since PI3K-PDK1/AKT/mTOR signaling pathway plays a critical role in regulation of autophagy, it was investigated the effects of BAG 956 treatments on PFF models. […] Taken together, BAG 956 may act as an autophagy-enhancing drug through inhibition of the PI3K-PDK1/AKT/mTOR signaling pathway (FIG. 18I).

Data set [6] has the same test system. Briefly: PI3K/PDK1 downstream target phosphorylation in α-syn PFF-treated mouse primary neurons. The format is cell-based.
Text: as §2

In data set [7] the test system is tau-PFF injected mice. Briefly: tau-PFF injected mice, AT8 immunofluorescence in dentate gyrus. The format is in vivo. The procedure:
To find in vivo efficacy in a pilot exponential set and set a drug dosage, an in vivo experiment with the tau-PFF injected mice with DMSO or BAG treatment ([…]) was performed. Intraperitoneal injection of different concentrations (0, 5, 10 mg/kg) of BAG was given for one month, once every two days. Immunofluorescence staining results of AT8 in the dentate gyrus of C57bl/6j mice (3 per group) after injection of K18-tau PFF (5 μg/kg) into the hippocampus for two months was performed (data not shown).

Data set [8] deals with α-syn PFF injected mice. As to the kind of experiment: In vivo intrastriatal α-syn PFF mouse model, oral BAG 956 (behaviour, histology, biochemistry). To be noted: short-term: two months at 2 mg/kg or one month at 10 mg/kg after intrastriatal α-syn PFF injection.
[9] abbreviates: blue light-illuminated opto-α-syn-mDA neurons.
[10] abbreviates: mDA neurons exposed to blue light.

For the compound `Cc1nc2cnc3ccc(C#Cc4cccnc4)cc3c2n1-c1ccc(C(C)(C)C#N)cc1` [BAG 956], the “AIS compared to blue light-illuminated DMSO control” value in data set [1] (two independent experiments, 24-well culture conditions, blue light stimulation) was “significant decrease”. Also, the “AIS, aggregates induction score” value in data set [1] (validation of 19 hits, 24-well plates, blue light, AIS normalized to positive control (blue light, DMSO) set as 1.0) came out at 0.34. Besides, the “pathologic α-syn in the Triton X-100 (TX)-insoluble fraction” value in data set [2] was “significantly reduced”. In data set [3] (setting [9]), the “LC-311 induction compared with BYL719 (alpelisib) or BAY 80-6946 (copanlisib)” value was “more potent” and the “level of LC-311” value is recorded as “increased”. Besides, in data set [3] (setting [10]), the “LC3+/5G4+ co-localized vesicles” value is on record as “increased number” and the “number of LC3+ puncta” value is on record as “increased number”. In data set [4], the “LC3+ puncta and LC3+/5G4+ co-localized dots” value is on record as “consistent”. In addition, the “Phosphorylation of PDK1 downstream targets PI3K, AKT, S6K, and mTOR” value in data set [5] is “significantly reduced”. Also, the “Phosphorylation of PDK1 downstream targets PI3K, AKT, S6K, and mTOR” value in data set [6] is on record as “significantly reduced”. Besides, in data set [7] (10 μg/kg dosage as printed), the toxicity result is “without noticeable toxicity”. For the same compound, in data set [7] (intraperitoneal, once every two days for one month, 5 and 10 mg/kg), the “levels of the AT8+ phosphorylated-tau” value was “significantly decreased”. Moreover, the “pathologic pS129-α-syn immunoreactivity in TH neurons of the ventral midbrain” value in data set [8] is “significantly reduced”.

The record behind these values is US20260023070A1, “OPTOGENETIC ALPHA-SYNUCLEIN AGGREGATION SYSTEM-BASED COMPOUND SCREENING PLATFORM IN PD-hiPSC-mDA NEURONS” (The Johns Hopkins University, priority 2022, published 2026).
